Experimental data published in patent EP0187355A1, “Process for preparing beta-lactam antibiotics” (E.R. Squibb & Sons, Inc., priority 1981, dated 1982).
Structures can show the parent of a compound that is named as a salt.

Key:
Test in all cases: MIC, agar dilution
Format in all cases: cell-based
[1] = tested on: Enterobacter cloacae, 8236; conditions: Enterobacter cloacae, 8236, 18 h, K-10 agar, 10^4 CFU, 37°C
Procedure, shortened: (§1)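 Broth cultures grown 18-20 h at 37°C, diluted 1:100 in K-10 broth, applied by multipoint inoculator at 10^4 CFU onto K-10 agar holding twofold compound dilutions, 100 to 0.05 µg/ml final. MIC taken as lowest concentration inhibiting growth.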

Micrococcus luteus, 2495 = conditions: Micrococcus luteus, 2495, 18 h, K-10 agar, 10^4 CFU, 37°C, read-out: M.I.C.
Procedure, shortened: as §1

[2] = tested on: Streptococcus agalactiae, 9287; conditions: Streptococcus agalactiae, 9287, 18 h, K-10 agar, 10^4 CFU, 37°C, read-out: M.I.C.
Procedure, shortened: as §1

[3] = tested on: Klebsiella aerogenes, 10440; conditions: K-10 agar, 10^4 CFU, 37°C, 18 hours, read-out: M.I.C.
Procedure, shortened: (§2)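 Inhibition of growth on compound-containing K-10 agar (final 100 to 0.05 µg/ml, twofold series) defined the endpoint, scored after 18 h at 37°C. Spots carried 10^4 CFU, with drug-free growth control plates inoculated before and after test plates.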

[4] = tested on: Staphylococcus aureus, 2399; conditions: Staphylococcus aureus, 2399, 18 h, Staphylococcus aureus, 2399; K-10 agar, 10^4 CFU, 37°C, 18 hours; read-out: M.I.C.
Procedure, shortened: as §2

[5] = tested on: Staphylococcus aureus, 2400; conditions: Staphylococcus aureus, 2400; K-10 agar, 10^4 CFU, 37°C, 18 hours; read-out: M.I.C.
Procedure, shortened: as §2

Proteus mirabilis, 3855 = conditions: Proteus mirabilis, 3855, 18 h, K-10 agar, 10^4 CFU, 37°C, read-out: M.I.C.
Procedure, shortened: as §2

Shigella sonnei, 8449 = conditions: Shigella sonnei, 8449, 18 h, K-10 agar, 10^4 CFU, 37°C
Procedure, shortened: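 Test strains are first grown in broth at 37°C for 18–20 hours, then diluted 1:100. Compounds are serially halved and mixed into K-10 agar at final levels from 100 to 0.05 µg/ml. Each plate receives about 10^4 CFU per organism, and growth is scored after 18 hours at 37°C.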

Escherichia coli, 10909 = conditions: K-10 agar, 10^4 CFU, 37°C, 18 hours
Procedure, shortened: as §2

[6] = tested on: Pseudomonas aeruginosa, 8329; conditions: K-10 agar, 10^4 CFU, 37°C, 18 hours, read-out: M.I.C.
Procedure, shortened: as §2

Escherichia coli, 8294 = conditions: Escherichia coli, 8294, 18 h, K-10 agar, 10^4 CFU, 37°C
Procedure, shortened: as §2

Escherichia coli, 10857 = conditions: Escherichia coli, 10857, 18 h, K-10 agar, 10^4 CFU, 37°C
Procedure, shortened: as §2

[7] = tested on: Klebsiella pneumoniae, 9527; conditions: Klebsiella pneumoniae, 9527, 18 h, K-10 agar, 10^4 CFU, 37°C, read-out: M.I.C.
Procedure, shortened: as §2

[8] = tested on: Pseudomonas aeruginosa, 9545; conditions: Pseudomonas aeruginosa, 9545, 18 h, K-10 agar, 10^4 CFU, 37°C, read-out: M.I.C.
Procedure, shortened: as §2

[9] = tested on: Citrobacter freundii, 9518; conditions: K-10 agar, 10^4 CFU, 37°C, 18 hours, read-out: M.I.C.
Procedure, shortened: as §2

Proteus vulgaris, 9416 = conditions: K-10 agar, 10^4 CFU, 37°C, 18 hours, read-out: M.I.C.
Procedure, shortened: as §2

[10] = tested on: Staphylococcus aureus, 10165; conditions: Staphylococcus aureus, 10165; K-10 agar, 10^4 CFU, 37°C, 18 hours; read-out: M.I.C.
Procedure, shortened: as §2

Salmonella typhosa, 1195 = conditions: Salmonella enterica, TYPHOSA, 18 h, K-10 agar, 10^4 CFU, 37°C
Procedure, shortened: as §2

Proteus rettgeri, 8479 = conditions: Providencia rettgeri, K-10 agar, 10^4 CFU, 37°C, 18 hours, read-out: M.I.C.
Procedure, shortened: as §2

[11] = tested on: Acinetobacter calcoaceticus, 8333; conditions: Acinetobacter calcoaceticus, 8333, 18 h, K-10 agar, 10^4 CFU, 37°C, read-out: M.I.C.
Procedure, shortened: as §2

[12] = tested on: Streptococcus faecalis, 9011; conditions: Enterococcus faecalis; Streptococcus faecalis, 9011; K-10 agar, 10^4 CFU, 37°C, 18 hours; read-out: M.I.C.
Procedure, shortened: as §2

[13] = tested on: Enterobacter aerogenes, 10078; conditions: Klebsiella aerogenes, 10078, 18 h, Enterobacter aerogenes, 10078; K-10 agar, 10^4 CFU, 37°C, 18 hours; read-out: M.I.C.
Procedure, shortened: as §2

Escherichia coli, 10896 = conditions: K-10 agar, 10^4 CFU, 37°C, 18 hours
Procedure, shortened: as §2

[14] = tested on: Serratia marcescens, 9783; conditions: Serratia marcescens, 9783, 18 h, K-10 agar, 10^4 CFU, 37°C, read-out: M.I.C.
Procedure, shortened: as §2

[15] = tested on: Staphylococcus aureus, 1276; conditions: Staphylococcus aureus, 1276; K-10 agar, 10^4 CFU, 37°C, 18 hours; read-out: M.I.C.
Procedure, shortened: as §2

C[C@H]1[C@H](NC(=O)/C(=N\OCC(=O)O)c2csc(N)n2)C(=O)N1S(=O)(=O)O [Example 31, [3S-[3α(Z),4β]]-3-[[[(Carboxymethoxy)imino](2-amino-4-thiazolyl)acetyl]amino]-4-methyl-2-oxo-l-azetidinesulfonic acid, dipotassium salt]
MIC [1]: 0.2 µg/mL
MIC (Micrococcus luteus, 2495): > 100 µg/mL
MIC [2]: 100 µg/mL
MIC [3]: 0.8 µg/mL
MIC [4]: > 100 µg/mL
MIC [5]: > 100 µg/mL
MIC (Proteus mirabilis, 3855): 0.2 µg/mL
MIC (Shigella sonnei, 8449): 0.4 µg/mL
MIC (Escherichia coli, 10909): 0.1 µg/mL
MIC [6]: 12.5 µg/mL
MIC (Escherichia coli, 8294): 0.4 µg/mL
MIC (Escherichia coli, 10857): 0.2 µg/mL
MIC [7]: 0.2 µg/mL
MIC [8]: 0.8 µg/mL
MIC [9]: 0.2 µg/mL
MIC (Proteus vulgaris, 9416): 0.2 µg/mL
MIC [10]: > 100 µg/mL
MIC (Salmonella typhosa, 1195): 0.2 µg/mL
MIC (Proteus rettgeri, 8479): 0.05 µg/mL
MIC [11]: 100 µg/mL
MIC [12]: > 100 µg/mL
MIC [13]: 0.4 µg/mL
MIC (Escherichia coli, 10896): 0.1 µg/mL
MIC [14]: 0.4 µg/mL
MIC [15]: > 100 µg/mL

CC1C(NC(=O)C(NC(=O)N2CCN(N)C(=O)C2=O)c2ccccc2)C(=O)N1S(=O)(=O)O (stereo not drawn) [Example 32, [3S(R*)]-3-[[[[(4-Amino-2,3-dioxo-1-piperazinyl)-carbonyl]amino]phenylacetyl]amino]-4-methyl-2-oxo-l-azetidinesulfonic acid, potassium salt]
MIC [1]: 6.3 µg/mL
MIC (Micrococcus luteus, 2495): 6.3 µg/mL
MIC [2]: 6.3 µg/mL
MIC [3]: 1.6 µg/mL
MIC [4]: 12.5 µg/mL
MIC [5]: 25 µg/mL
MIC (Proteus mirabilis, 3855): 0.4 µg/mL
MIC (Shigella sonnei, 8449): 6.3 µg/mL
MIC (Escherichia coli, 10909): 0.8 µg/mL
MIC [6]: 50 µg/mL
MIC (Escherichia coli, 8294): 3.1 µg/mL
MIC (Escherichia coli, 10857): 0.4 µg/mL
MIC [7]: 0.2 µg/mL
MIC [8]: 6.3 µg/mL
MIC [9]: 3.1 µg/mL
MIC (Proteus vulgaris, 9416): 0.2 µg/mL
MIC [10]: > 100 µg/mL
MIC (Salmonella typhosa, 1195): 0.2 µg/mL
MIC (Proteus rettgeri, 8479): 0.4 µg/mL
MIC [11]: 50 µg/mL
MIC [12]: > 100 µg/mL
MIC [13]: 6.3 µg/mL
MIC (Escherichia coli, 10896): 12.5 µg/mL
MIC [14]: 3.1 µg/mL
MIC [15]: 25 µg/mL
